# System: ovalbumin (OVA)-sensitized and OVA-challenged Brown Norway rats
# Experiment: Late inflammatory airway reaction in the ovalbumin-sensitized/-challenged Brown-Norway rat (BAL fluid eosinophils, total cells, protein)
# Type: in vivo
# Conditions: for Mean % Inhibition of Eosinophils: BAL fluid 48 h after OVA challenge; for Mean % Inhibition of Eosinophils / Mean % Inhibition of Protein: drug 1 h before challenge, p.o., Roflumilast 1.0, Formoterol 3.0, combination 1.0 + 3.0 μmol/kg; for Mean % Inhibition of Protein: cell-free BAL fluid 48 h after OVA challenge
# Description: Late Inflammatory Airway Reaction in the Ovalbumin-Sensitized/-Challenged Brown-Norway Rat
# Anti-inflammatory activity of Roflumilast and formoterol was determined in ovalbumin (OVA)-sensitized and OVA-challenged Brown Norway rats. Sensitization was done by simultaneous injection of Bordetella pertussis suspension i.p. and OVA/AHG suspension s.c. on day 1, 14 and 21. 28 days after start of sensitization, conscious Brown-Norway rats were challenged by inhalation of the aerosolized OVA solution for 1 h (˜20 ml/h). Non-challenged, only sensitized animals were used as baseline control. The drugs (thoroughly mixed with lactose) or the placebo control (lactose) were administered intratracheally (i.t.) as dry powders 1 h before OVA-challenge. 48 h later, OVA-challenged or non-challenged animals were anaesthetized and bronchoalveolar lavage (BAL) was performed using 3×4 ml BAL buffer per animal. The number of total cells and eosinophils in the BAL fluid, and the concentration of protein in the cell-free BAL fluid were determined. Drug-induced relative changes were calculated and statistically analyzed by the Jonckheere Terpstra test.
Compound,"effects on total cell and eosinophil influx into alveolar space and protein levels in BAL fluid (3 μmol/kg i.t., data failed to reach significance)",Mean % Inhibition of Eosinophils [%],Mean % Inhibition of Protein [%],effects on cell infiltration and protein accumulation (0.3 μmol/kg i.t.)
COc1ccc(CC(C)NCC(O)c2ccc(O)c(NC=O)c2)cc1 (stereo not drawn) [Formoterol],exhibited inhibitory effects,35,46,–
O=C(Nc1c(Cl)cncc1Cl)c1ccc(OC(F)F)c(OCC2CC2)c1 [Roflumilast],–,0,15,did not show any significant effects
